Measured values: ChEMBL document CHEMBL4359904, “Structural tuning of acridones for developing anticancer agents targeting dihydrofolate reductase” (Bioorg Med Chem Lett, 2019)
The source made the active and inactive calls. The rule behind the calls is not given here.

Tests used:
C6 [1] = assay: Antiproliferative activity against rat C6 cells assessed as decrease in cell viability measured after 48 hrs by MTT assay; format: functional, cell-based
RPMI-8226 = assay: Growth inhibition of human RPMI8226 cells incubated for 48 hrs by sulforhodamine B assay; format: functional; conditions: RPMI-8226, 48 h
SF-295 = assay: Growth inhibition of human SF295 cells incubated for 48 hrs by sulforhodamine B assay; format: functional; conditions: SF-295, 48 h
OVCAR-5 = assay: Growth inhibition of human OVCAR5 cells at 10^-5 M incubated for 48 hrs by sulforhodamine B assay relative to control; format: functional; conditions: OVCAR-5, 48 h, read-out: GI
A498 = assay: Growth inhibition of human A498 cells incubated for 48 hrs by sulforhodamine B assay; format: functional; conditions: A498, 48 h
SK-OV-3 = assay: Growth inhibition of human SKOV3 cells incubated for 48 hrs by sulforhodamine B assay; format: functional; conditions: SK-OV-3, 48 h
NCI-H23 = assay: Growth inhibition of human NCI-H23 cells incubated for 48 hrs by sulforhodamine B assay; format: functional; conditions: NCI-H23, 48 h
MDA-MB-468 [2] = assay: Growth inhibition of human MDA-MB-468 cells incubated for 48 hrs by sulforhodamine B assay; format: functional; conditions: MDA-MB-468, 48 h
IGROV-1 = assay: Growth inhibition of human IGROV1 cells incubated for 48 hrs by sulforhodamine B assay; format: functional; conditions: IGROV-1, 48 h
SK-MEL-28 = assay: Growth inhibition of human SK-MEL-28 cells incubated for 48 hrs by sulforhodamine B assay; format: functional; conditions: SK-MEL-28, 48 h
HT-29 = assay: Growth inhibition of human HT-29 cells incubated for 48 hrs by sulforhodamine B assay; format: functional; conditions: HT-29, 48 h
K562 = assay: Growth inhibition of human K562 cells at 10^-5 M incubated for 48 hrs by sulforhodamine B assay relative to control; format: functional; conditions: K562, 48 h, read-out: GI
MCF7 = assay: Growth inhibition of human MCF7 cells at 10^-5 M incubated for 48 hrs by sulforhodamine B assay relative to control; format: functional; conditions: MCF7, 48 h, read-out: GI
RXF 393 = assay: Growth inhibition of human RXF393 cells incubated for 48 hrs by sulforhodamine B assay; format: functional; conditions: RXF 393, 48 h
OVCAR-8 = assay: Growth inhibition of human OVCAR8 cells incubated for 48 hrs by sulforhodamine B assay; format: functional; conditions: OVCAR-8, 48 h
Malme-3M = assay: Growth inhibition of human MALME-3M cells incubated for 48 hrs by sulforhodamine B assay; format: functional
[3] = test system: Panel NCI-60 (60 carcinoma cell lines); assay: Therapeutic index, ratio of LC50 for human NCI60 cells to GI50 for human NCI60 cells measured after 48 hrs by sulforhodamine B assay; format: functional
TK-10 = assay: Growth inhibition of human TK10 cells incubated for 48 hrs by sulforhodamine B assay; format: functional; conditions: TK-10, 48 h
MOLT-4 = assay: Growth inhibition of human MOLT4 cells incubated for 48 hrs by sulforhodamine B assay; format: functional; conditions: MOLT-4, 48 h
CAKI-1 = assay: Growth inhibition of human Caki1 cells incubated for 48 hrs by sulforhodamine B assay; format: functional; conditions: CAKI-1, 48 h
MDA-MB-468 [4] = assay: Growth inhibition of human MDA-MB-468 cells at 10^-5 M incubated for 48 hrs by sulforhodamine B assay relative to control; format: functional; conditions: MDA-MB-468, 48 h, read-out: GI
UO-31 [5] = assay: Growth inhibition of human UO31 cells incubated for 48 hrs by sulforhodamine B assay; format: functional; conditions: UO-31, 48 h
C6 [6] = assay: Cell cycle arrest in rat C6 cells assessed as decrease in cell population at G2/M phase measured after 24 hrs by propidium iodide staining based flow cytometry analysis; format: functional
BT-549 = assay: Growth inhibition of human BT549 cells incubated for 48 hrs by sulforhodamine B assay; format: functional; conditions: BT-549, 48 h
[7] = target: T1, Dihydrofolate reductase (Homo sapiens) (UniProt P00374); assay: Inhibition of human dihydrofolate reductase assessed as association constant by UV-Vis spectra based Benesi Hilebrand equation analysis
T1 sequence (whole entry): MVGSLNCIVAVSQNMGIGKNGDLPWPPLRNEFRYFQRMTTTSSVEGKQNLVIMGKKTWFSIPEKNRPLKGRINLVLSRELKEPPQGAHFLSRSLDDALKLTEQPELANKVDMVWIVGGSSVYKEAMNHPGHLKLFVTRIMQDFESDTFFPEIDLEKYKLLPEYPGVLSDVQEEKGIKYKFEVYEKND

SF-539 = assay: Growth inhibition of human SF539 cells incubated for 48 hrs by sulforhodamine B assay; format: functional; conditions: SF-539, 48 h
HOP-62 = assay: Growth inhibition of human HOP62 cells incubated for 48 hrs by sulforhodamine B assay; format: functional; conditions: HOP-62, 48 h
NCI-H226 = assay: Growth inhibition of human NCI-H226 cells incubated for 48 hrs by sulforhodamine B assay; format: functional; conditions: NCI-H226, 48 h
NCI-H522 = assay: Growth inhibition of human NCI-H522 cells incubated for 48 hrs by sulforhodamine B assay; format: functional; conditions: NCI-H522, 48 h
DU-145 = assay: Growth inhibition of human DU145 cells incubated for 48 hrs by sulforhodamine B assay; format: functional; conditions: DU-145, 48 h
UO-31 [8] = assay: Growth inhibition of human UO31 cells at 10^-5 M incubated for 48 hrs by sulforhodamine B assay relative to control; format: functional; conditions: UO-31, 48 h, read-out: GI
[9] = read-out: pLC50 (the source's name) (converted)

Which inhibition (C6 [1]) does the source give for `O=c1c2ccccc2n(CC2CO2)c2ccccc12` (racemic) here?
Its inhibition is “Dose-dependent effect”.

What about the IC50 (C6 [1]; C6, 48 h) of the same compound?
The IC50 was 0.25 to 1.5 µM.

And the GI50 (RPMI-8226)?
The GI50 was 0.302 µM.

And the CC50 (RPMI-8226; [9])?
Its CC50 is over 100 µM.

And the TGI (RPMI-8226; read-out: pTGI (converted))?
The TGI was 1.1 µM.

What about the GI50 (SF-295) of the same compound?
Its GI50 is 0.603 µM.

What about the CC50 (SF-295; [9]) of the same compound?
The CC50 was over 100 µM.

What about the TGI (SF-295; read-out: pTGI (converted)) of the same compound?
Its TGI is 4.27 µM.

What about the inhibition of growth at 10 µM (OVCAR-5) of the same compound?
The inhibition of growth at 10 µM was 100%.

What about the GI50 (A498) of the same compound?
The GI50 was 1.74 µM.

What about the CC50 (A498; [9]) of the same compound?
Its CC50 is 7.24 µM.

And the TGI (A498; read-out: pTGI (converted))?
The TGI was 3.55 µM.

What about the GI50 (SK-OV-3) of the same compound?
The GI50 was 1.41 µM.

And the CC50 (SK-OV-3; [9])?
Its CC50 is over 100 µM.

What about the GI50 (NCI-H23) of the same compound?
Its GI50 is 0.295 µM.

What about the CC50 (NCI-H23; [9]) of the same compound?
Its CC50 is 57.5 µM.

What about the TGI (NCI-H23; read-out: pTGI (converted)) of the same compound?
The TGI was 1.29 µM.

And the GI50 (MDA-MB-468 [2])?
The GI50 was 1.2 µM.

And the CC50 (MDA-MB-468 [2]; [9])?
Its CC50 is 7.94 µM.

What about the TGI (MDA-MB-468 [2]; read-out: pTGI (converted)) of the same compound?
The TGI was 3.09 µM.

And the GI50 (IGROV-1)?
Its GI50 is 0.331 µM.

And the CC50 (IGROV-1; [9])?
Its CC50 is 67.6 µM.

What about the TGI (IGROV-1; read-out: pTGI (converted)) of the same compound?
Its TGI is 2.57 µM.

What about the GI50 (SK-MEL-28) of the same compound?
Its GI50 is 0.407 µM.

And the CC50 (SK-MEL-28; [9])?
The CC50 was 11 µM.

What about the TGI (SK-MEL-28; read-out: pTGI (converted)) of the same compound?
The TGI was 1.95 µM.

And the GI50 (HT-29)?
The GI50 was 0.316 µM.

And the CC50 (HT-29; [9])?
The CC50 was 23.4 µM.

What about the TGI (HT-29; read-out: pTGI (converted)) of the same compound?
The TGI was 0.871 µM.

And the inhibition of growth at 10 µM (K562)?
Its inhibition of growth at 10 µM is 92%.

And the inhibition of growth at 10 µM (MCF7)?
Its inhibition of growth at 10 µM is 100%.

What about the GI50 (RXF 393) of the same compound?
The GI50 was 0.214 µM.

What about the CC50 (RXF 393; [9]) of the same compound?
Its CC50 is 2.29 µM.

What about the TGI (RXF 393; read-out: pTGI (converted)) of the same compound?
Its TGI is 0.513 µM.

And the GI50 (OVCAR-8)?
The GI50 was 0.148 µM.

What about the CC50 (OVCAR-8; [9]) of the same compound?
Its CC50 is over 100 µM.

What about the TGI (OVCAR-8; read-out: pTGI (converted)) of the same compound?
The TGI was 1.32 µM.

And the GI50 (Malme-3M)?
Its GI50 is 0.589 µM.

And the CC50 (Malme-3M; [9])?
Its CC50 is 4.9 µM.

And the TGI (Malme-3M; read-out: pTGI (converted))?
Its TGI is 2 µM.

And the TI [3]?
Its TI is 28.

What about the GI50 (TK-10) of the same compound?
The GI50 was 0.479 µM.

What about the CC50 (TK-10; [9]) of the same compound?
Its CC50 is over 100 µM.

And the TGI (TK-10; read-out: pTGI (converted))?
The TGI was 3.09 µM.

And the GI50 (MOLT-4; read-out: GI50)?
The GI50 was 0.04 µM.

What about the CC50 (MOLT-4; read-out: LC50 (the source's name)) of the same compound?
The CC50 was over 100 µM.

And the GI50 (MOLT-4; read-out: pGI50 (converted))?
The GI50 was 0.0417 µM.

And the CC50 (MOLT-4; [9])?
The CC50 was over 100 µM.

What about the TGI (MOLT-4; read-out: pTGI (converted)) of the same compound?
The TGI was 0.316 µM.

What about the GI50 (CAKI-1) of the same compound?
The GI50 was 0.174 µM.

And the CC50 (CAKI-1; [9])?
The CC50 was over 100 µM.

And the TGI (CAKI-1; read-out: pTGI (converted))?
Its TGI is 0.692 µM.

And the inhibition of growth at 10 µM (MDA-MB-468 [4])?
The inhibition of growth at 10 µM was 100%.

What about the GI50 (UO-31 [5]) of the same compound?
The GI50 was 0.178 µM.

What about the TGI (UO-31 [5]; read-out: pTGI (converted)) of the same compound?
The TGI was 0.407 µM.

What about the inhibition (C6 [6]) of the same compound?
The inhibition was “Active”.

And the GI50 (BT-549)?
Its GI50 is 0.339 µM.

What about the CC50 (BT-549; [9]) of the same compound?
Its CC50 is 66.1 µM.

And the TGI (BT-549; read-out: pTGI (converted))?
The TGI was 3.16 µM.

What about the Ka [7] of the same compound?
Its Ka is 1.4 ×10⁴ /M.

What about the GI50 (SF-539) of the same compound?
Its GI50 is 0.347 µM.

And the CC50 (SF-539; [9])?
The CC50 was over 100 µM.

What about the TGI (SF-539; read-out: pTGI (converted)) of the same compound?
The TGI was 1.78 µM.

And the GI50 (HOP-62)?
The GI50 was 0.38 µM.

And the CC50 (HOP-62; [9])?
The CC50 was over 100 µM.

And the TGI (HOP-62; read-out: pTGI (converted))?
The TGI was 2.75 µM.

And the GI50 (NCI-H226)?
The GI50 was 0.302 µM.

And the CC50 (NCI-H226; [9])?
The CC50 was over 100 µM.

What about the TGI (NCI-H226; read-out: pTGI (converted)) of the same compound?
Its TGI is 1.48 µM.

And the GI50 (NCI-H522)?
The GI50 was 0.372 µM.

And the CC50 (NCI-H522; [9])?
Its CC50 is 19.5 µM.

What about the TGI (NCI-H522; read-out: pTGI (converted)) of the same compound?
The TGI was 1.32 µM.

What about the GI50 (DU-145) of the same compound?
Its GI50 is 0.347 µM.

And the CC50 (DU-145; [9])?
The CC50 was over 100 µM.

What about the TGI (DU-145; read-out: pTGI (converted)) of the same compound?
The TGI was 1.48 µM.

What about the inhibition of growth at 10 µM (UO-31 [8]) of the same compound?
Its inhibition of growth at 10 µM is 100%.
